# Source: patent US9079974B2, “GH-RH analogs with potent agonistic effects” (The University of Miami, priority 2011, dated 2015)
# Entries after “also recorded” stand apart in the source; their conditions may differ. Square brackets hold non-standard residues; d marks the D form. Peptide text beside a SMILES is read from it. * marks the point of attachment. Phe(F5) = N[C@@H](Cc1c(F)c(F)c(F)c(F)c1F)C(=O)O; Desaminotyrosyl = O=C(CCc1ccc(O)cc1)*; NMeY = CN[C@@H](Cc1ccc(O)cc1)C(=O)O; Agmatine = N=C(N)NCCCCN*; Nle = CCCC[C@H](N)C(=O)O; Orn = NCCC[C@H](N)C(=O)O; Abu = CC[C@H](N)C(=O)O; Ava = NCCCCC(=O)O; GABA = NCCCC(=O)O
# Key:
# [1] = tested on: GH release; experiment: In vivo GH release after subcutaneous administration; conditions: rat, s.c.
# Method: Blood samples are taken from the jugular vein; 5, 15 and 30 minutes or only 15 and 30 minutes after the injection. The blood samples are centrifuged, plasma is removed and the GH level is measured by ELISA. The results are summarized in terms of potency in Table 9.
# [2] = biological target: T1, GHRH receptor (Homo sapiens, UniProt Q02643); experiment: GHRH receptor binding, 125I-labeled JV-1-42 ligand competition, human pituitary membrane homogenates (Table 7); conditions: for IC50: 125I-labeled JV-1-42, human pituitary membranes
# T1 construct: Normal human pituitaries were purchased from the National Hormone and Peptide Program; tissue National Hormone and Peptide Program (A. F. Parlow); host or cells: normal human pituitary, membrane fraction
# T1 sequence (Q02643 23-423): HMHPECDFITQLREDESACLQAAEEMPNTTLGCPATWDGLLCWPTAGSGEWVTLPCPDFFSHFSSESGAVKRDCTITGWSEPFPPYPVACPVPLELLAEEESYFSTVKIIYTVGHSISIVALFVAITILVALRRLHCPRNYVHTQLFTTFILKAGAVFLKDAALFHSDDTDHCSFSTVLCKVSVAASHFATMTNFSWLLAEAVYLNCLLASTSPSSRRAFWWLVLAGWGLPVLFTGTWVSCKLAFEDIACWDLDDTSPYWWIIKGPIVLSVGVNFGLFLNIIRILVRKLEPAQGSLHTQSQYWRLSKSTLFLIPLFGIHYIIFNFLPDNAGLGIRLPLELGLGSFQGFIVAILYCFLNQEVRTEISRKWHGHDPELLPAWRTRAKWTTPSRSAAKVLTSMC
# Method: Preparation of human pituitary membrane fraction and receptor binding of GHRH agonists were performed as previously described, by using a sensitive in vitro ligand competition assay based on binding of ^125I-labeled JV-1-42 to human pituitary membrane homogenates. Normal human pituitaries were purchased from the National Hormone and Peptide Program (A. F. Parlow, Los Angeles, County Harbor-UCLA Medical Center, Torrance, Calif.).
Compound,IC50 [2] [nM],Relative affinity (Binding potency) vs JI-38 ([2]; relative to JI-38 = 1),GH response after subcutaneous administration (in words) [1]
"CCCC[C@H](NC(=O)[C@@H](NC(=O)[C@H](CC(=O)O)NC(=O)[C@H](CCC(N)=O)NC(=O)[C@H](CC(C)C)NC(=O)[C@H](CC(C)C)NC(=O)[C@H](CCCN)NC(=O)[C@H](CCCNC(=N)N)NC(=O)[C@H](C)NC(=O)[C@H](CO)NC(=O)[C@H](CC(C)C)NC(=O)[C@H](CCC(N)=O)NC(=O)[C@H](CC)NC(=O)[C@H](CC(C)C)NC(=O)[C@@H](NC(=O)[C@H](CCCN)NC(=O)[C@H](CCCNC(=N)N)NC(=O)[C@H](Cc1ccc(O)cc1)NC(=O)[C@H](CO)NC(=O)[C@H](CCC(N)=O)NC(=O)[C@@H](NC(=O)[C@H](Cc1ccccc1)NC(=O)[C@@H](NC(=O)[C@H](C)NC(=O)[C@H](CC(=O)O)NC(=O)[C@@H](C)NC(=O)CCc1ccc(O)cc1)[C@@H](C)CC)[C@@H](C)O)C(C)C)[C@@H](C)CC)C(=O)N[C@@H](CC(=O)O)C(=O)NCCCCNC(=N)N [Peptide P-20350, [Dat^1, D-Ala^2, Gln^8, Orn^12, Abu^15, Orn^21, Nle^27, Asp^28, Agm^29]hGH-RH(1-29)] (Desaminotyrosyl-[dA]DAIFTQSYR[Orn]VL[Abu]QLSAR[Orn]LLQDI[Nle]D-Agmatine)",–,–,unusually high responses; also recorded: especially greater growth hormone levels than hGH-RH or JI-38
"CCCC[C@H](NC(=O)[C@@H](NC(=O)[C@H](CC(=O)O)NC(=O)[C@H](CCC(N)=O)NC(=O)[C@H](CC(C)C)NC(=O)[C@H](CC(C)C)NC(=O)[C@H](CCCN)NC(=O)[C@H](CCCNC(=N)N)NC(=O)[C@H](C)NC(=O)[C@H](CO)NC(=O)[C@H](CC(C)C)NC(=O)[C@H](CCC(N)=O)NC(=O)[C@H](CC)NC(=O)[C@H](CC(C)C)NC(=O)[C@@H](NC(=O)[C@H](CCCN)NC(=O)[C@H](CCCNC(=N)N)NC(=O)[C@H](Cc1ccc(O)cc1)NC(=O)[C@H](CO)NC(=O)[C@H](CC(N)=O)NC(=O)[C@@H](NC(=O)[C@H](Cc1ccccc1)NC(=O)[C@@H](NC(=O)[C@H](C)NC(=O)[C@H](CC(=O)O)NC(=O)[C@@H](C)NC(=O)[C@H](Cc1ccc(O)cc1)NC)[C@@H](C)CC)[C@@H](C)O)C(C)C)[C@@H](C)CC)C(=O)N[C@@H](CC(=O)O)C(=O)N[C@@H](CCCNC(=N)N)C(=O)NC [Peptide P-27409, [N—Me-Tyr^1, D-Ala^2, Orn^12, Abu^15, Orn^21, Nle^27, Asp^28]hGH-RH(1-29)NH—CH3] (H-[NMeY][dA]DAIFTNSYR[Orn]VL[Abu]QLSAR[Orn]LLQDI[Nle]DR-NHMe)",1.06,–,unusually high responses; also recorded: especially greater growth hormone levels than hGH-RH or JI-38
"CCCC[C@H](NC(=O)[C@@H](NC(=O)[C@H](CC(=O)O)NC(=O)[C@H](CCC(N)=O)NC(=O)[C@H](CC(C)C)NC(=O)[C@H](CC(C)C)NC(=O)[C@H](CCCN)NC(=O)[C@H](CCCNC(=N)N)NC(=O)[C@H](C)NC(=O)[C@H](CO)NC(=O)[C@H](CC(C)C)NC(=O)[C@H](CCC(N)=O)NC(=O)[C@H](CC)NC(=O)[C@H](CC(C)C)NC(=O)[C@@H](NC(=O)[C@H](CCCN)NC(=O)[C@H](CCCNC(=N)N)NC(=O)[C@H](Cc1ccc(O)cc1)NC(=O)[C@H](CO)NC(=O)[C@H](CC(N)=O)NC(=O)[C@@H](NC(=O)[C@H](Cc1ccccc1)NC(=O)[C@@H](NC(=O)[C@H](C)NC(=O)[C@H](CC(=O)O)NC(=O)[C@@H](C)NC(=O)[C@H](Cc1ccc(O)cc1)NC)[C@@H](C)CC)[C@@H](C)O)C(C)C)[C@@H](C)CC)C(=O)N[C@@H](CO)C(=O)N[C@@H](CCCNC(=N)N)C(=O)NCCCC(N)=O [Peptide P-25501, [N—Me-Tyr^1, D-Ala^2, Orn^12, Abu^15, Orn^21, Nle^27, Gab^30]hGH-RH(1-30)NH2] (H-[NMeY][dA]DAIFTNSYR[Orn]VL[Abu]QLSAR[Orn]LLQDI[Nle]SR[GABA]-NH2)",1.07,–,unusually high responses; also recorded: especially greater growth hormone levels than hGH-RH or JI-38

# Continued by falling IC50 [2], values first:
IC50 [2] [nM],Relative affinity (Binding potency) vs JI-38 ([2]; relative to JI-38 = 1),Compound,GH response after subcutaneous administration (in words) [1]
0.87,5.00,"CCCC[C@H](NC(=O)[C@@H](NC(=O)[C@H](CC(=O)O)NC(=O)[C@H](CCC(N)=O)NC(=O)[C@H](CC(C)C)NC(=O)[C@H](CC(C)C)NC(=O)[C@H](CCCN)NC(=O)[C@H](CCCNC(=N)N)NC(=O)[C@H](C)NC(=O)[C@H](CO)NC(=O)[C@H](CC(C)C)NC(=O)[C@H](CCC(N)=O)NC(=O)[C@H](CC)NC(=O)[C@H](CC(C)C)NC(=O)[C@@H](NC(=O)[C@H](CCCN)NC(=O)[C@H](CCCNC(=N)N)NC(=O)[C@H](Cc1ccc(O)cc1)NC(=O)[C@H](CO)NC(=O)[C@H](CC(N)=O)NC(=O)[C@@H](NC(=O)[C@H](Cc1c(F)c(F)c(F)c(F)c1F)NC(=O)[C@@H](NC(=O)[C@H](C)NC(=O)[C@H](CC(=O)O)NC(=O)[C@@H](C)NC(=O)[C@H](Cc1ccc(O)cc1)NC)[C@@H](C)CC)[C@@H](C)O)C(C)C)[C@@H](C)CC)C(=O)N[C@@H](CC(=O)O)C(=O)N[C@@H](CCCNC(=N)N)C(=O)NC [Peptide P-27404, [N—Me-Tyr^1, D-Ala^2, Fpa5^6, Orn^12, Abu^15, Orn^21, Nle^27, Asp^28]hGH-RH(1-29)NH—CH3] (H-[NMeY][dA]DAI[Phe(F5)]TNSYR[Orn]VL[Abu]QLSAR[Orn]LLQDI[Nle]DR-NHMe)",unusually high responses; also recorded: especially greater growth hormone levels than hGH-RH or JI-38
0.71,–,"CCCC[C@H](NC(=O)[C@@H](NC(=O)[C@H](CC(=O)O)NC(=O)[C@H](CCC(N)=O)NC(=O)[C@H](CC(C)C)NC(=O)[C@H](CC(C)C)NC(=O)[C@H](CCCN)NC(=O)[C@H](CCCNC(=N)N)NC(=O)[C@H](C)NC(=O)[C@H](CO)NC(=O)[C@H](CC(C)C)NC(=O)[C@H](CCC(N)=O)NC(=O)[C@H](CC)NC(=O)[C@H](CC(C)C)NC(=O)[C@@H](NC(=O)[C@H](CCCN)NC(=O)[C@H](CCCNC(=N)N)NC(=O)[C@H](Cc1ccc(O)cc1)NC(=O)[C@H](CO)NC(=O)[C@H](CCC(N)=O)NC(=O)[C@@H](NC(=O)[C@H](Cc1ccccc1)NC(=O)[C@@H](NC(=O)[C@H](C)NC(=O)[C@H](CC(=O)O)NC(=O)[C@@H](C)NC(=O)[C@H](Cc1ccc(O)cc1)NC)[C@@H](C)CC)[C@@H](C)O)C(C)C)[C@@H](C)CC)C(=O)N[C@@H](CC(=O)O)C(=O)N[C@@H](CCCNC(=N)N)C(=O)NCCCCC(N)=O [Peptide P-22326, [N—Me-Tyr^1, D-Ala^2, Gln^8, Orn^12, Abu^15, Orn^21, Nle^27, Asp^28, Apa^30]hGH-RH(1-30)NH2] (H-[NMeY][dA]DAIFTQSYR[Orn]VL[Abu]QLSAR[Orn]LLQDI[Nle]DR[Ava]-NH2)",unusually high responses; also recorded: especially greater growth hormone levels than hGH-RH or JI-38
